# Activity calls are given as the source filed them. Cut-off read from the data, not from the text of the source, for most assays here: actives have a measured Kd and inactives only a lower limit.
# Biological target: T1, Serine/threonine-protein kinase LATS1 (Homo sapiens, UniProt O95835)
# T1 sequence (O95835 whole entry): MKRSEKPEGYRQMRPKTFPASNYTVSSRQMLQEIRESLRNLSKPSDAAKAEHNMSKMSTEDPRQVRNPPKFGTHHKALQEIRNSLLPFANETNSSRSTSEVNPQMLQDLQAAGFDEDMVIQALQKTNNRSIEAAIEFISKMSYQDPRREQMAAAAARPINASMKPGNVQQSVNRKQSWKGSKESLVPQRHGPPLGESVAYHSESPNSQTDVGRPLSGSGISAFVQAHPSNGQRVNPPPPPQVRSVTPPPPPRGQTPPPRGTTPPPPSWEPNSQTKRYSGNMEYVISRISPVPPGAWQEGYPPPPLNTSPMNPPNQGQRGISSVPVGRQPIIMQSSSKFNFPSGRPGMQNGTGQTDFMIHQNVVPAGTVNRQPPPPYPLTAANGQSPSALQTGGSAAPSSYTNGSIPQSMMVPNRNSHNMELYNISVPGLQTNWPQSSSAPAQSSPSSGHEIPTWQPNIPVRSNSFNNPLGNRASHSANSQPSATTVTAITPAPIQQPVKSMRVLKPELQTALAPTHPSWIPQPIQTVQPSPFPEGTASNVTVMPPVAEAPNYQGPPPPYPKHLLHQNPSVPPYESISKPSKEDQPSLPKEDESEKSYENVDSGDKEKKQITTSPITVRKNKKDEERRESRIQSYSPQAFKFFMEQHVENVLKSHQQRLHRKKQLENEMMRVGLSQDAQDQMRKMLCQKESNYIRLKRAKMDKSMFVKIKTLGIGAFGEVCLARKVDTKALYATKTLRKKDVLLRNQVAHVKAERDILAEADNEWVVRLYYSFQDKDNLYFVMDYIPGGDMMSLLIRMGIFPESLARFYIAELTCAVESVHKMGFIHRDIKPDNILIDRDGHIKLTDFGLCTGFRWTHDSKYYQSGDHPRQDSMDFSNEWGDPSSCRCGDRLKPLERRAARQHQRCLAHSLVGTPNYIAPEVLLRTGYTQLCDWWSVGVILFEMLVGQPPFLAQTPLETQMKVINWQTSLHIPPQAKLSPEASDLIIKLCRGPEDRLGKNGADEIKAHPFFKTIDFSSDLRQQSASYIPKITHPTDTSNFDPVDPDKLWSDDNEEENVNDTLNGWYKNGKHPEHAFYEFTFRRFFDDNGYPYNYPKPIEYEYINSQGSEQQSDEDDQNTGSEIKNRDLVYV
# Note: in the data inactive means no Kd found up to 30 µM.
row,Structure (SMILES),Kd
1,OCCn1cc(-c2cnc3nnn(Cc4ccc5ncccc5c4)c3n2)cn1 [PF-04217903],> 30 µM (inactive)
2,CNC(=O)c1cc(Oc2ccc(NC(=O)Nc3ccc(Cl)c(C(F)(F)F)c3)c(F)c2)ccn1 [REGORAFENIB],> 30 µM (inactive)
3,C[C@@H](c1ccc2nccn2c1)n1nnc2ncc(-c3cnn(C)c3)nc21 [SAVOLITINIB],> 30 µM (inactive)
4,O=C(Nc1cccc(Cl)c1)Nc1ncc(CCNc2ncnc3ccsc23)s1 [SNS-314],> 30 µM (inactive)
5,COc1cc2nccc(Oc3ccc(NC(=O)Nc4cc(C)on4)c(Cl)c3)c2cc1OC [TIVOZANIB],> 30 µM (inactive)
6,CCCS(=O)(=O)Nc1ccc(F)c(C(=O)c2c[nH]c3ncc(-c4ccc(Cl)cc4)cc23)c1F [VEMURAFENIB],> 30 µM (inactive)

# Biological target: T2, Mitogen-activated protein kinase kinase kinase kinase 2 (Homo sapiens, UniProt Q12851)
# T2 sequence (Q12851 whole entry): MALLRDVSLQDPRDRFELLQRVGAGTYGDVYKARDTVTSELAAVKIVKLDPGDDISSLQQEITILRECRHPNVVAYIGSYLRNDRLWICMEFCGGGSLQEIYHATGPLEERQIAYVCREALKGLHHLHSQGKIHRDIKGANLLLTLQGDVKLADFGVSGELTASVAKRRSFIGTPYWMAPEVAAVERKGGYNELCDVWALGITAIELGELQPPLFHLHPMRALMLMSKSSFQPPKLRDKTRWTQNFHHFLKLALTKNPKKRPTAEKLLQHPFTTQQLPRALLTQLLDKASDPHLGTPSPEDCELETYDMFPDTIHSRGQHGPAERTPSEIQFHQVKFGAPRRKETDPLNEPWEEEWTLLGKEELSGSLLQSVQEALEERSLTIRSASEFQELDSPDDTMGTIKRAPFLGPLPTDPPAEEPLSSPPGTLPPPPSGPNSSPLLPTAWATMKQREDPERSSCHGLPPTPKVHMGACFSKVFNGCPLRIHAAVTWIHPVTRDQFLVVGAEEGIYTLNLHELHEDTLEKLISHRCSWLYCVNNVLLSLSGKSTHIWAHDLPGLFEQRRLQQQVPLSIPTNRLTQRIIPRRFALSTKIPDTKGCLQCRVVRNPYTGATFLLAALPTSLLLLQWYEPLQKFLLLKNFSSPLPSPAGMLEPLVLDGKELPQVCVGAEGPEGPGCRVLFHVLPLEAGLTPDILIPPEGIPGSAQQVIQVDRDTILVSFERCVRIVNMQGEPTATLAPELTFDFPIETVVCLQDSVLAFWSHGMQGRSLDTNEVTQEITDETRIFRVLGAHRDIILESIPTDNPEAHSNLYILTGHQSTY
row,Structure (SMILES),Kd
1,CNC(=O)c1cc(Oc2ccc(NC(=O)Nc3ccc(Cl)c(C(F)(F)F)c3)c(F)c2)ccn1 [REGORAFENIB],> 30 µM (inactive)
2,C[C@@H](c1ccc2nccn2c1)n1nnc2ncc(-c3cnn(C)c3)nc21 [SAVOLITINIB],> 30 µM (inactive)
3,COc1cc2nccc(Oc3ccc(NC(=O)Nc4cc(C)on4)c(Cl)c3)c2cc1OC [TIVOZANIB],2.38 µM (active)

# Biological target: Protein kinase C delta type (Homo sapiens, UniProt Q05655)
# Sequence (Q05655 whole entry): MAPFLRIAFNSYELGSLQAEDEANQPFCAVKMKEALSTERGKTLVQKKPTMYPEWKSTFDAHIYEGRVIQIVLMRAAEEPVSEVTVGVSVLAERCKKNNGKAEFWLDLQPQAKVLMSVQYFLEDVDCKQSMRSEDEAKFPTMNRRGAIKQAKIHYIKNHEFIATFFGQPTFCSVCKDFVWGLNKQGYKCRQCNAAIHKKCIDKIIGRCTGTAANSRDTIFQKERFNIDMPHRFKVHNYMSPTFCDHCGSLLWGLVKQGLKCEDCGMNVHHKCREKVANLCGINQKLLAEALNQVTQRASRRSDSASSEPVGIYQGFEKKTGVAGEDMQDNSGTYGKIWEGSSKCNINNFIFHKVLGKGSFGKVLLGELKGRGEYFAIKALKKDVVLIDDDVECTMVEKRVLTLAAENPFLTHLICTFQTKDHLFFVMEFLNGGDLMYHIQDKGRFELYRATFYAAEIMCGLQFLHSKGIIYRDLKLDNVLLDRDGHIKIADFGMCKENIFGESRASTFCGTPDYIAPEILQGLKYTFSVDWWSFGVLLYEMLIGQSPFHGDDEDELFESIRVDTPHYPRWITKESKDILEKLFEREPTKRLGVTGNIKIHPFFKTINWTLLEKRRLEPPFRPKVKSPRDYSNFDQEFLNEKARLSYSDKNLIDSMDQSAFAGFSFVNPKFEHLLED
row,Structure (SMILES),Kd
1,OCCn1cc(-c2cnc3nnn(Cc4ccc5ncccc5c4)c3n2)cn1 [PF-04217903],> 30 µM (inactive)
2,CNC(=O)c1cc(Oc2ccc(NC(=O)Nc3ccc(Cl)c(C(F)(F)F)c3)c(F)c2)ccn1 [REGORAFENIB],> 30 µM (inactive)
3,C[C@@H](c1ccc2nccn2c1)n1nnc2ncc(-c3cnn(C)c3)nc21 [SAVOLITINIB],> 30 µM (inactive)
4,COc1cc2nccc(Oc3ccc(NC(=O)Nc4cc(C)on4)c(Cl)c3)c2cc1OC [TIVOZANIB],> 30 µM (inactive)
5,CCCS(=O)(=O)Nc1ccc(F)c(C(=O)c2c[nH]c3ncc(-c4ccc(Cl)cc4)cc23)c1F [VEMURAFENIB],> 30 µM (inactive)

# Biological target: Mitogen-activated protein kinase 7 (Homo sapiens, UniProt Q13164)
# Sequence (Q13164 whole entry): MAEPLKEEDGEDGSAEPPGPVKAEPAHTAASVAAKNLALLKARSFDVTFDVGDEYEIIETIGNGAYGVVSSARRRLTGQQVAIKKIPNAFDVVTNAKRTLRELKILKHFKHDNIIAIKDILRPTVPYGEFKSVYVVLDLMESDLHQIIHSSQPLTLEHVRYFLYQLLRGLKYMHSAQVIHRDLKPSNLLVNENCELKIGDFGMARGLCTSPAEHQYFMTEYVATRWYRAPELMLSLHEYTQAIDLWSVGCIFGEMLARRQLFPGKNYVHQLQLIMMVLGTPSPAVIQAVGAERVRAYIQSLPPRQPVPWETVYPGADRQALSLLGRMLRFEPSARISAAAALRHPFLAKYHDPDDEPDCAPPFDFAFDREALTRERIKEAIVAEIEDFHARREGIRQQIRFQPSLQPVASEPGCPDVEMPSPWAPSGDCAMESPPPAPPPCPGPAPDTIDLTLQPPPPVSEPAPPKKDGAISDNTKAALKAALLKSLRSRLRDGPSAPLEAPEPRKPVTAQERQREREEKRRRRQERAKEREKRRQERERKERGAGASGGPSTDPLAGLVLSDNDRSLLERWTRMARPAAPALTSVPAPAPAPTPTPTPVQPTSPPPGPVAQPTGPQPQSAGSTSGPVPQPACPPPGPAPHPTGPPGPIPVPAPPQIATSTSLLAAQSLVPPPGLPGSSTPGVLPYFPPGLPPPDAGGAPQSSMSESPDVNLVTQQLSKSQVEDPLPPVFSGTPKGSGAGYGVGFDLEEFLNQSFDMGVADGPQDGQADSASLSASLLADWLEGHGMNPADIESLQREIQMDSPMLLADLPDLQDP
row,Structure (SMILES),Kd
1,OCCn1cc(-c2cnc3nnn(Cc4ccc5ncccc5c4)c3n2)cn1 [PF-04217903],> 30 µM (inactive)
2,CNC(=O)c1cc(Oc2ccc(NC(=O)Nc3ccc(Cl)c(C(F)(F)F)c3)c(F)c2)ccn1 [REGORAFENIB],> 30 µM (inactive)
3,C[C@@H](c1ccc2nccn2c1)n1nnc2ncc(-c3cnn(C)c3)nc21 [SAVOLITINIB],> 30 µM (inactive)
4,COc1cc2nccc(Oc3ccc(NC(=O)Nc4cc(C)on4)c(Cl)c3)c2cc1OC [TIVOZANIB],> 30 µM (inactive)
5,CCCS(=O)(=O)Nc1ccc(F)c(C(=O)c2c[nH]c3ncc(-c4ccc(Cl)cc4)cc23)c1F [VEMURAFENIB],> 30 µM (inactive)

# Biological target: Tyrosine-protein kinase HCK (Homo sapiens, UniProt P08631)
# Sequence (P08631 whole entry): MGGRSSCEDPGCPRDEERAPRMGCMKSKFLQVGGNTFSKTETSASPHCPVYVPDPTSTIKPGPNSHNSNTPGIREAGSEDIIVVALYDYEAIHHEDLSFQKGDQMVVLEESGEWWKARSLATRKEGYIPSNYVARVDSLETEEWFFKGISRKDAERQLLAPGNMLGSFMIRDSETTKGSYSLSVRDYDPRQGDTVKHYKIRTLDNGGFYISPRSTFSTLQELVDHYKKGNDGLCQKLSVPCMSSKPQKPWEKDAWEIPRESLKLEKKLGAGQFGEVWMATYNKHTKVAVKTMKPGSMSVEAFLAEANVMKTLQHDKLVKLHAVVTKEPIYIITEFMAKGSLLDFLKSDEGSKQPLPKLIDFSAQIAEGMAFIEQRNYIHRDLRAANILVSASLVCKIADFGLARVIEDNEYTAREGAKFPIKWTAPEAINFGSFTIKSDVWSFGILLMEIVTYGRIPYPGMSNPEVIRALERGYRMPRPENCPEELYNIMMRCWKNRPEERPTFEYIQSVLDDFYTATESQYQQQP
row,Structure (SMILES),Kd
1,OCCn1cc(-c2cnc3nnn(Cc4ccc5ncccc5c4)c3n2)cn1 [PF-04217903],> 30 µM (inactive)
2,CNC(=O)c1cc(Oc2ccc(NC(=O)Nc3ccc(Cl)c(C(F)(F)F)c3)c(F)c2)ccn1 [REGORAFENIB],> 30 µM (inactive)
3,C[C@@H](c1ccc2nccn2c1)n1nnc2ncc(-c3cnn(C)c3)nc21 [SAVOLITINIB],> 30 µM (inactive)
4,O=C(Nc1cccc(Cl)c1)Nc1ncc(CCNc2ncnc3ccsc23)s1 [SNS-314],> 30 µM (inactive)
5,COc1cc2nccc(Oc3ccc(NC(=O)Nc4cc(C)on4)c(Cl)c3)c2cc1OC [TIVOZANIB],> 30 µM (inactive)
6,CCCS(=O)(=O)Nc1ccc(F)c(C(=O)c2c[nH]c3ncc(-c4ccc(Cl)cc4)cc23)c1F [VEMURAFENIB],> 30 µM (inactive)

# Biological target: LIM domain kinase 2 (Homo sapiens, UniProt P53671)
# Sequence (P53671 whole entry, the tested form may be a part): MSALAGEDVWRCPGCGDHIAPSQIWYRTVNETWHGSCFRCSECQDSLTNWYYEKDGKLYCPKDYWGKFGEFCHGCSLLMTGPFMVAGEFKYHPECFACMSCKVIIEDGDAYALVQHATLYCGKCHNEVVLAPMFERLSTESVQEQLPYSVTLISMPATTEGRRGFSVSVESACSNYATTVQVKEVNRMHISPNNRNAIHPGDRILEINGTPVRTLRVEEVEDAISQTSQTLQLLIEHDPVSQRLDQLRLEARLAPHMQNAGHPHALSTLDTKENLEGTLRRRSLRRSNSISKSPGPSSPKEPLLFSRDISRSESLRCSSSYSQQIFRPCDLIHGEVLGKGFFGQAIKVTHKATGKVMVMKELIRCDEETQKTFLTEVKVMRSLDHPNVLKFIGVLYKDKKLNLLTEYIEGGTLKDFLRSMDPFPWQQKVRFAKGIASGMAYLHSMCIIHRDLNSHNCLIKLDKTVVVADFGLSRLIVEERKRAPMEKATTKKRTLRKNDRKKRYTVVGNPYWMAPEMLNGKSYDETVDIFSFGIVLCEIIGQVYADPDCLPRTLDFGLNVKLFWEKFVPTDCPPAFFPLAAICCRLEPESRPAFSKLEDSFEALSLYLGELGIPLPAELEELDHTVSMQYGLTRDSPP
row,Structure (SMILES),Kd
1,OCCn1cc(-c2cnc3nnn(Cc4ccc5ncccc5c4)c3n2)cn1 [PF-04217903],> 30 µM (inactive)
2,CNC(=O)c1cc(Oc2ccc(NC(=O)Nc3ccc(Cl)c(C(F)(F)F)c3)c(F)c2)ccn1 [REGORAFENIB],> 30 µM (inactive)
3,C[C@@H](c1ccc2nccn2c1)n1nnc2ncc(-c3cnn(C)c3)nc21 [SAVOLITINIB],> 30 µM (inactive)
4,O=C(Nc1cccc(Cl)c1)Nc1ncc(CCNc2ncnc3ccsc23)s1 [SNS-314],> 30 µM (inactive)
5,COc1cc2nccc(Oc3ccc(NC(=O)Nc4cc(C)on4)c(Cl)c3)c2cc1OC [TIVOZANIB],> 30 µM (inactive)
6,CCCS(=O)(=O)Nc1ccc(F)c(C(=O)c2c[nH]c3ncc(-c4ccc(Cl)cc4)cc23)c1F [VEMURAFENIB],> 30 µM (inactive)

# Biological target: Receptor-interacting serine/threonine-protein kinase 2 (Homo sapiens, UniProt O43353)
# Sequence (O43353 whole entry): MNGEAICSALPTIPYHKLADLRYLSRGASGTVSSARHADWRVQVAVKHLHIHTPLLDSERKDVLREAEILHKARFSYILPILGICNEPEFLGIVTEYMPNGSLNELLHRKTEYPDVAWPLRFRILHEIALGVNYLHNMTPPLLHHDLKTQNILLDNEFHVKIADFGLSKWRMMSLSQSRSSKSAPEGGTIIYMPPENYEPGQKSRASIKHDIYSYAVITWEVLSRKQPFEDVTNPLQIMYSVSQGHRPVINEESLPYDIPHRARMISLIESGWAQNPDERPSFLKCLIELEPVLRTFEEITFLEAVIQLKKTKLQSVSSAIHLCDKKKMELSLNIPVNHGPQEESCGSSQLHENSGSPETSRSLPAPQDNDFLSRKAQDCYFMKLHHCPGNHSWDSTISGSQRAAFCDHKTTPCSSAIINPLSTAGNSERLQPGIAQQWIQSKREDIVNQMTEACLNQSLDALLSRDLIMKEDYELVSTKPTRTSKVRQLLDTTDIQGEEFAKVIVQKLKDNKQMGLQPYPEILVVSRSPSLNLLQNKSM
row,Structure (SMILES),Kd
1,OCCn1cc(-c2cnc3nnn(Cc4ccc5ncccc5c4)c3n2)cn1 [PF-04217903],> 30 µM (inactive)
2,C[C@@H](c1ccc2nccn2c1)n1nnc2ncc(-c3cnn(C)c3)nc21 [SAVOLITINIB],> 30 µM (inactive)
3,O=C(Nc1cccc(Cl)c1)Nc1ncc(CCNc2ncnc3ccsc23)s1 [SNS-314],> 30 µM (inactive)
4,CCCS(=O)(=O)Nc1ccc(F)c(C(=O)c2c[nH]c3ncc(-c4ccc(Cl)cc4)cc23)c1F [VEMURAFENIB],0.427 µM (active)

# Biological target: T3, Serine/threonine-protein kinase Nek2 (Homo sapiens, UniProt P51955)
# T3 sequence (P51955 whole entry): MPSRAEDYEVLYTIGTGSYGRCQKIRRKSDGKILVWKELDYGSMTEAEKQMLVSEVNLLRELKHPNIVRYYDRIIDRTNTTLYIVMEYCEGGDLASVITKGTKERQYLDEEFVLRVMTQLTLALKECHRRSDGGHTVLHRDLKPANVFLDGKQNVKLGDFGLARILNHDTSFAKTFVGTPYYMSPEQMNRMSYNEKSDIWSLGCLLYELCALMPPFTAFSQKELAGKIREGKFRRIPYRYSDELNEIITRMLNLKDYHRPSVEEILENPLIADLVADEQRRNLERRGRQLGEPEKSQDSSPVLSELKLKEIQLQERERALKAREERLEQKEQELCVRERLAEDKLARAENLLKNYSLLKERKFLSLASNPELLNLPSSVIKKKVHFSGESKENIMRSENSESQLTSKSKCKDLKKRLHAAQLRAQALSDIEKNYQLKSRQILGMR
row,Structure (SMILES),Kd
1,CNC(=O)c1cc(Oc2ccc(NC(=O)Nc3ccc(Cl)c(C(F)(F)F)c3)c(F)c2)ccn1 [REGORAFENIB],> 30 µM (inactive)
2,COc1cc2nccc(Oc3ccc(NC(=O)Nc4cc(C)on4)c(Cl)c3)c2cc1OC [TIVOZANIB],> 30 µM (inactive)
3,CCCS(=O)(=O)Nc1ccc(F)c(C(=O)c2c[nH]c3ncc(-c4ccc(Cl)cc4)cc23)c1F [VEMURAFENIB],> 30 µM (inactive)

# Biological target: Midasin (Homo sapiens, UniProt Q9NU22)
row,Structure (SMILES),Kd
1,CN1CCN(c2ccc3nc(-c4c(N)c5c(F)cccc5[nH]c4=O)[nH]c3c2)CC1 [DOVITINIB],> 30 µM (inactive)
2,CCn1c(-c2nonc2N)nc2c(C#CC(C)(C)O)ncc(OC[C@H]3CCCNC3)c21 [GSK-690693],> 30 µM (inactive)
3,Cc1cn(-c2cc(NC(=O)c3ccc(C)c(Nc4nccc(-c5cccnc5)n4)c3)cc(C(F)(F)F)c2)cn1 [NILOTINIB],> 30 µM (inactive)
4,OCCn1cc(-c2cnc3nnn(Cc4ccc5ncccc5c4)c3n2)cn1 [PF-04217903],> 30 µM (inactive)
5,CNC(=O)c1cc(Oc2ccc(NC(=O)Nc3ccc(Cl)c(C(F)(F)F)c3)c(F)c2)ccn1 [REGORAFENIB],> 30 µM (inactive)
6,C[C@@H](c1ccc2nccn2c1)n1nnc2ncc(-c3cnn(C)c3)nc21 [SAVOLITINIB],> 30 µM (inactive)
7,O=C(Nc1cccc(Cl)c1)Nc1ncc(CCNc2ncnc3ccsc23)s1 [SNS-314],> 30 µM (inactive)
8,Nc1nc(N)c2nc(-c3cccc(O)c3)c(-c3cccc(O)c3)nc2n1 [TG100-115],> 30 µM (inactive)
9,COc1cc2nccc(Oc3ccc(NC(=O)Nc4cc(C)on4)c(Cl)c3)c2cc1OC [TIVOZANIB],> 30 µM (inactive)
10,CCCS(=O)(=O)Nc1ccc(F)c(C(=O)c2c[nH]c3ncc(-c4ccc(Cl)cc4)cc23)c1F [VEMURAFENIB],> 30 µM (inactive)

# Biological target: Cyclin-dependent kinase 3 (Homo sapiens, UniProt Q00526)
# Sequence (Q00526 whole entry): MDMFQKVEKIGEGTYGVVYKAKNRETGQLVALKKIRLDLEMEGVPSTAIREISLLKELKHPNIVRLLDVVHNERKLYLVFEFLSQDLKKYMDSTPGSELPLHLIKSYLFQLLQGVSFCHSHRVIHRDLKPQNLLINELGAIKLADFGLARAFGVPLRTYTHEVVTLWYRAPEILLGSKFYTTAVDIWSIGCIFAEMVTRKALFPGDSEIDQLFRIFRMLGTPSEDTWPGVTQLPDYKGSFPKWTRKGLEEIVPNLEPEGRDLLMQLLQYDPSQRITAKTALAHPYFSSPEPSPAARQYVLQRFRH
row,Structure (SMILES),Kd
1,OCCn1cc(-c2cnc3nnn(Cc4ccc5ncccc5c4)c3n2)cn1 [PF-04217903],> 30 µM (inactive)
2,CNC(=O)c1cc(Oc2ccc(NC(=O)Nc3ccc(Cl)c(C(F)(F)F)c3)c(F)c2)ccn1 [REGORAFENIB],> 30 µM (inactive)
3,C[C@@H](c1ccc2nccn2c1)n1nnc2ncc(-c3cnn(C)c3)nc21 [SAVOLITINIB],> 30 µM (inactive)
4,O=C(Nc1cccc(Cl)c1)Nc1ncc(CCNc2ncnc3ccsc23)s1 [SNS-314],> 30 µM (inactive)
5,COc1cc2nccc(Oc3ccc(NC(=O)Nc4cc(C)on4)c(Cl)c3)c2cc1OC [TIVOZANIB],> 30 µM (inactive)
6,CCCS(=O)(=O)Nc1ccc(F)c(C(=O)c2c[nH]c3ncc(-c4ccc(Cl)cc4)cc23)c1F [VEMURAFENIB],> 30 µM (inactive)
